The target of assay [1] is T1, human N-type Ca channel (Homo sapiens, UniProt Q00975). In words: Calcium influx assay (FDSS). Format: cell-based. Also on record: host or cells: HEK 293. The following applies: HEK 293 cells, depolarized with 100 mM KCl. The procedure:
All cell culture reagents were procured from HyClone and other reagents were from Fisher. Recombinant HEK 293 cells expressing human N-type Ca channel (Millipore) were maintained in DMEM F12 containing 10% FBS and selection antibiotics at 37° C. in 5% CO2.
Cells were incubated at 30° C. in 5% CO2 overnight. The medium was removed and cells were loaded with Fluo8 dye (AAT Bioquest) at 37° C. and 30° C., 30 min each in darkness. Cells were washed four times with wash buffer (16 mM Herep pH 7.2, 2 mM CaCl2, 1 mM MgCl2, 5 mM glucose, 140 mM choline chloride and 2 mM KCl) leaving 15 μL buffer after the last wash. Compounds of Formula (I), serially diluted, were added to the cell plate. The plates were incubated in darkness for 15 min. Cells were depolarized with 100 mM KCl and Ca influx was measured.

The target of assay [2] is T1, human N-type Ca channel. The experiment in a line: Measurement of electrophysiological response (QPatch). In general terms: Patch clamp records ionic current or voltage across a cell membrane.
Protocol: The recombinant cell line described above was used in the measurement of electrophysiological properties with QPatch (Sophion). […] Prior to the experiment, the flasks were moved to 30° C. and incubated for 48-72 hrs. On the day of assaying, cells were detached and harvested. The cell pellet was re-suspended in SMF4HEK (HyClone)/25 mM HEPS at 2-5 million/mL and placed on the QStirrer of the QPatch for 30-60 min prior to the start of the assay. […] Microtiter-Plate/Reference Buffer contained 140 mM TEA-Cl, 10 mM BaCl2, 0.8 mM MgCl2, 10 mM HEPES pH˜7.4 adjusted with TEA-OH/HCl, and ˜300 mOsm. Cells were transferred to a QPatch 48 plate and gigaseal was formed. The plate was perfused with intracellular and extracellular buffer. […] In brief, cells were depolarized from resting potential of −80 mV to +20 mV and current was recorded. Data was plotted as percent inhibition vs concentration of the compound and IC50 values were generated using Graphpad Prism non-linear regression analysis.
The subject of assay [3] is mechanical allodynia after L5/L6 spinal nerve ligation. The experiment in a line: Sciatic nerve ligation (SNL) model of neuropathic pain. Format: in vivo. To be noted: rats; dose 50 mg/kg; response at Tmax. The text has this:
Left L5 and L6 spinal nerves are isolated adjacent to the vertebral column and were ligated with 5-0 silk suture distal to the dorsal root ganglion, as described by Kim and Chung (1992). The incision was closed with the help of GLUture topical tissue adhesive. At 14 days post-surgery (one day prior to test compound administration), mechanical allodynia was quantified using eight von Frey filaments, calibrated in the range 0.4-15.1 g (Nielsen et al 2005). Rats were placed into individual plastic containers on top of a suspended wire mesh grid and acclimated to the test chambers for at least 15 min. Filaments were applied perpendicular to the mid-plantar paw surface, with enough force to cause slight buckling, and held in place for 6-8 sec until a response was noted as a sharp paw withdrawal, flinching, licking and/or biting immediately upon removal of the filament (Nielsen et al 2005). […] Test compounds of Formula (I) were administered and a response was measured at Tmax. The maximum possible effect (% MPE) was determined to be 100% if the sensitivity in the ipsilateral paw neared that of the contralateral paw. Values from vehicle-treated animals were considered 0%. The compound effect was determined based on these values.

Where [4] appears, read: N Type IC50 Data Qpatch Pulse = 15, Pulse = 15, concentration range 0.3-10 μM.
[5] abbreviates: N Type IC50 Data Qpatch Pulse = 1, Pulse = 1, concentration range 0.3-10 μM.
The mark [6] stands for this setting: read-out: Qpatch Pulse = 1 (percent inhibition).
Setting [7] is: concentration range 0.01-0.3 μM.

Data on 13 compounds can be found in patent publication US9974775B2, “Substituted imidazoles as N-type calcium channel blockers” (Janssen Pharmaceutica NV, priority 2013, dated 2018).

Where two headings read alike, the source gives them in different places.

As a reminder, the IC50 is the midpoint of a concentration-inhibition curve. A word on the inhibition: it is the change of the read-out against control, counted positive when it falls.

T1 sequence (Q00975 whole entry): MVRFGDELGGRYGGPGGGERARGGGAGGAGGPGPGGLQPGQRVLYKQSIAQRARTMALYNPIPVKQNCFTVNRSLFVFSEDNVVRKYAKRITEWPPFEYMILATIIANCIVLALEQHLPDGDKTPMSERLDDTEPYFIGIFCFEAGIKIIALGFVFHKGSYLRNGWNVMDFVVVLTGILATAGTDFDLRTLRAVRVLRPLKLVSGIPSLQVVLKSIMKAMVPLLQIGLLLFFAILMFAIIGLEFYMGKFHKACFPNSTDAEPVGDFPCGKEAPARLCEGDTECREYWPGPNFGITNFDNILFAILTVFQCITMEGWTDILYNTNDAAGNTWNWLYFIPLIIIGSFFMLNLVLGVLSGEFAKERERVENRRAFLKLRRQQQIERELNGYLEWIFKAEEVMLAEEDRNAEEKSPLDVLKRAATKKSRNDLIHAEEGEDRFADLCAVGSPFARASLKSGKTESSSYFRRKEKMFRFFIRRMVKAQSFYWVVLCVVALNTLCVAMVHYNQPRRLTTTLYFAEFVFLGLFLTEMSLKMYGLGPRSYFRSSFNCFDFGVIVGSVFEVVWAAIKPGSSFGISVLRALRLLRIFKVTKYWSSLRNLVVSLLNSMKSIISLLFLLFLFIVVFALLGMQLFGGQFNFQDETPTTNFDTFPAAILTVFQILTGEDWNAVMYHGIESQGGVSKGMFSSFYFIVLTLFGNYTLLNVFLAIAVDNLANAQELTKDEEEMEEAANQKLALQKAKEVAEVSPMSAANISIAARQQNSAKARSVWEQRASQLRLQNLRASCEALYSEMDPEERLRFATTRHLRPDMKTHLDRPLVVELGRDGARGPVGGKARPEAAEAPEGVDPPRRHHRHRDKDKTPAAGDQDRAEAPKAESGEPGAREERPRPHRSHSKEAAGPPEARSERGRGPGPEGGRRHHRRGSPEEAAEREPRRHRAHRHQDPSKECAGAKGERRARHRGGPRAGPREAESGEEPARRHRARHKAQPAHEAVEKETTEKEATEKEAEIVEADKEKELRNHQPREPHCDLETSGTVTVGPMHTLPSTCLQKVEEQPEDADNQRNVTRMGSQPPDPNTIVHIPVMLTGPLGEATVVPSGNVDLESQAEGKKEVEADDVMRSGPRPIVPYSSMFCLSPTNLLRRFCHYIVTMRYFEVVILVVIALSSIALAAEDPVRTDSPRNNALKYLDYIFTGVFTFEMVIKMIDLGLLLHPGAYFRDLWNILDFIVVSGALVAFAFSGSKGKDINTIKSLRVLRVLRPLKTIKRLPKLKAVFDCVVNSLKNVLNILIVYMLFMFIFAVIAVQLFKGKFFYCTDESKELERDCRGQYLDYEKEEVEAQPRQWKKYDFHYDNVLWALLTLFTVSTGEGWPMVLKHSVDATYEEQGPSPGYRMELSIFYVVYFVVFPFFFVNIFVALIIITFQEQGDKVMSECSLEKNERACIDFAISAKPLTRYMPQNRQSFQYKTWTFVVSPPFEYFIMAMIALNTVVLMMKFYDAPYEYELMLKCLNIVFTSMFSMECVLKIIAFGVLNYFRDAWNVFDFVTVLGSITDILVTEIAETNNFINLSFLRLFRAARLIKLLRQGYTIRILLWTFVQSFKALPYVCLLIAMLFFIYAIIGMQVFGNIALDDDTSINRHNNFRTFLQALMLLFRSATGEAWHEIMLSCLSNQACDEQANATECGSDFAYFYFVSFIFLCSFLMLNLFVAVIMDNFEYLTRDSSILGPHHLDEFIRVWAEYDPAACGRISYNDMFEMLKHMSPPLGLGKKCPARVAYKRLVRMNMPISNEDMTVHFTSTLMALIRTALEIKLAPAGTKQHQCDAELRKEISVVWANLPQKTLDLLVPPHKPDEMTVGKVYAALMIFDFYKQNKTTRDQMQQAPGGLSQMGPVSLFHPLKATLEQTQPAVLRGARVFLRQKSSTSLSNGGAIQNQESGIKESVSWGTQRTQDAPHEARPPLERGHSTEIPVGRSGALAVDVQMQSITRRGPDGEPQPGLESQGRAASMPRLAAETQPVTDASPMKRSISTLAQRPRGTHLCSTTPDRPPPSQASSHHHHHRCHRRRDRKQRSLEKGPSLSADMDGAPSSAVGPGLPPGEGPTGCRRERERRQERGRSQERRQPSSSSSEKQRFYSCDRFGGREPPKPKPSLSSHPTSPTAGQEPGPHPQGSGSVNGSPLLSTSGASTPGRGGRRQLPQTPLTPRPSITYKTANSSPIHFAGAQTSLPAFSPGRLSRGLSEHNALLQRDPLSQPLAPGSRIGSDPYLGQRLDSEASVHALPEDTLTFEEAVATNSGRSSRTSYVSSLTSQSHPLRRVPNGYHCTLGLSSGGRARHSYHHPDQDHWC
T1 sequence (P54284 whole entry partner): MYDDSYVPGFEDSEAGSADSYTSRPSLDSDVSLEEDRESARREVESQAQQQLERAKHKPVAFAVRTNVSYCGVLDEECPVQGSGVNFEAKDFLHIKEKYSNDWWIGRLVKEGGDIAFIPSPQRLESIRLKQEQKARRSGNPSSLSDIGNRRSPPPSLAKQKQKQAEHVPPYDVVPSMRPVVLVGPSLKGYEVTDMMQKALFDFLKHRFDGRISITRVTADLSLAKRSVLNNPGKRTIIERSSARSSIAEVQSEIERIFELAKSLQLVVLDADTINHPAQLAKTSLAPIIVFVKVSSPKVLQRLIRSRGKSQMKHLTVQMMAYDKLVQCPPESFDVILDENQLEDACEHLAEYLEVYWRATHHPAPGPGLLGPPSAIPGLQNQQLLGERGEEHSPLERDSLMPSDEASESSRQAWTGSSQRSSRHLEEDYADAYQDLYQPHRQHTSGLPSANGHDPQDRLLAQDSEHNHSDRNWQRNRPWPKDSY
T1 sequence (P54289 25-956 partner limits assumed): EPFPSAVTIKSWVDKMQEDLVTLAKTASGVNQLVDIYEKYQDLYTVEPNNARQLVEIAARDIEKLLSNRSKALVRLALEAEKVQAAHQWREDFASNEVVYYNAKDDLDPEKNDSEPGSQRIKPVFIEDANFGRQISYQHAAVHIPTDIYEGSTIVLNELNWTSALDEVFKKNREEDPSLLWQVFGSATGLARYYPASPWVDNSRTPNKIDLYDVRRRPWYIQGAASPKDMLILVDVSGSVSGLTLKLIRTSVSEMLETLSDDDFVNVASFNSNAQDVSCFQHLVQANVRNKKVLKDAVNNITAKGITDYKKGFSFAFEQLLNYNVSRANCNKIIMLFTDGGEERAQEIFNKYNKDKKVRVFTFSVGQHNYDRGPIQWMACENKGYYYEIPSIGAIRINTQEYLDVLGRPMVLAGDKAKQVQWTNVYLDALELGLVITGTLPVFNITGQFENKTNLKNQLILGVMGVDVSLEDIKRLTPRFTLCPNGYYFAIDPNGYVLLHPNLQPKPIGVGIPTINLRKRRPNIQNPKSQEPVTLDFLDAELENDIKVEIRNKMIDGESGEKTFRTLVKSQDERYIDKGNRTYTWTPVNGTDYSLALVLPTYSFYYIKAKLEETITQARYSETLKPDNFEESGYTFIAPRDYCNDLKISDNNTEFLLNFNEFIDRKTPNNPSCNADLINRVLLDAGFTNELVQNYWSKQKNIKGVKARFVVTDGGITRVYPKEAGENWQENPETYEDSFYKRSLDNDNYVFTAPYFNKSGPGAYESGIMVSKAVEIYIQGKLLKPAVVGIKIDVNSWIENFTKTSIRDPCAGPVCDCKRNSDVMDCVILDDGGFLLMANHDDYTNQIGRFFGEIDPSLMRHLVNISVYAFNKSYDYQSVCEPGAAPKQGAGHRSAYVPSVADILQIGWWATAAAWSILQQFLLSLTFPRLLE
T1 sequence (P54289 957-1103 partner limits assumed): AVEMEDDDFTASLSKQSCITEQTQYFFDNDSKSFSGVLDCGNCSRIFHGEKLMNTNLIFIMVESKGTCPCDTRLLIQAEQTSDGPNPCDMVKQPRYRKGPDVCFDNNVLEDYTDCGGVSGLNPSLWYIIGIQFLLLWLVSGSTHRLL

`COc1ccccc1-c1nc(C2=CC(C)(C)OC(C)(C)C2)cn1-c1ccc(C#N)c(F)c1` [Cpd 126, 2-Fluoro-4-[2-(2-methoxyphenyl)-4-(2,2,6,6-tetramethyl-3,6-dihydro-2H-pyran-4-yl)-1H-imidazol-1-yl]benzonitrile]: the values for the IC50 at human N-type Ca channel [1] and against human N-type Ca channel [2] (setting [4]) were 234 nM and 1900 nM, respectively.

On to `COc1ccccc1-c1nc(C2CC(C)(C)OC(C)(C)C2)cn1S(=O)(=O)C1CC1` [Cpd 95, 1-(Cyclopropylsulfonyl)-2-(2-methoxyphenyl)-4-(2,2,6,6-tetramethyltetrahydro-2H-pyran-4-yl)-1H-imidazole], for which the IC50 on human N-type Ca channel [1] was at least 10000 nM.

In the case of `COc1ncccc1-c1nc(C2(O)CC(C)(C)OC(C)(C)C2)cn1-c1ccc(F)c(C#N)c1` [Cpd 116, 2-Fluoro-5-[4-(4-hydroxy-2,2,6,6-tetramethyltetrahydro-2H-pyran-4-yl)-2-(2-methoxypyridin-3-yl)-1H-imidazol-1-yl]benzonitrile], the IC50 at human N-type Ca channel [1] is 1370 nM; against human N-type Ca channel [2] (N Type IC50 Data Qpatch Pulse = 1, Pulse = 1, concentration range 0.01-1 μM), over 1000 nM; against human N-type Ca channel [2] (N Type IC50 Data Qpatch Pulse = 15, Pulse = 15, concentration range 0.01-1 μM), over 1000 nM.

For the compound `COc1ccccc1-c1nc(C2CC(C)(C)OC(C)(C)C2)cn1Cc1cncnc1` [Cpd 100, 5-{[2-(2-Methoxyphenyl)-4-(2,2,6,6-tetramethyltetrahydro-2H-pyran-4-yl)-1H-imidazol-1-yl]methyl}pyrimidine], the IC50 at human N-type Ca channel [1], at human N-type Ca channel [2] (setting [5]) and against human N-type Ca channel [2] (setting [4]) was at least 10000 nM in each case.

With `COc1ccccc1-c1nc(C2CC(C)(C)OC(C)(C)C2)cn1-c1ccc(C#N)cc1` [Cpd 1, 4-(2-(2-methoxyphenyl)-4-(2,2,6,6-tetramethyltetrahydro-2H-pyran-4-yl)-1H-imidazol-1-yl)benzonitrile], in assay [3], the “SNL(% MPE)” value is 64.07 ± 12.31%.

Consider `COc1ccccc1-c1nc(C2(O)CC(C)(C)OC(C)(C)C2)cn1-c1ccc(F)c(Br)c1` [Cpd 106, 4-[1-(3-Bromo-4-fluorophenyl)-2-(2-methoxyphenyl)-1H-imidazol-4-yl]-2,2,6,6-tetramethyltetrahydro-2H-pyran-4-ol], for which the values for the IC50 on human N-type Ca channel [1] and against human N-type Ca channel [2] (setting [4]) were 148 nM and 5030 nM, respectively. Moreover, on human N-type Ca channel [2] (setting [6]), the inhibition at 10 µM amounted to 71%.

`COc1ccccc1-c1nc(C2CC(C)(C)OC(C)(C)C2)cn1-c1ccc(C#N)c(C(F)(F)F)c1` [Cpd 121, 4-[2-(2-Methoxyphenyl)-4-(2,2,6,6-tetramethyltetrahydro-2H-pyran-4-yl)-1H-imidazol-1-yl]-2-(trifluoromethyl)benzonitrile]: the IC50 at human N-type Ca channel [1] is 233 nM; against human N-type Ca channel [2] (setting [5]), 6600 nM; against human N-type Ca channel [2] (setting [4]), 3300 nM.

As for `COc1cc(-n2cc(C3CC(C)(C)OC(C)(C)C3)nc2-c2cccnc2OC)ccc1C#N` [Cpd 77, 2-Methoxy-4-[2-(2-methoxypyridin-3-yl)-4-(2,2,6,6-tetramethyltetrahydro-2H-pyran-4-yl)-1H-imidazol-1-yl]benzonitrile], on human N-type Ca channel [1], the IC50 is at least 10000 nM.

On to `COc1ccccc1-c1nc(C2CC(C)(C)OC(C)(C)C2)cn1-c1ccc(F)c(C#N)c1` [Cpd 74, 2-Fluoro-5-[2-(2-methoxy-phenyl)-4-(2,2,6,6-tetramethyl-tetrahydro-pyran-4-yl)-imidazol-1-yl]-benzonitrile], for which the IC50 at human N-type Ca channel [1] was 488 nM. For the same compound, the inhibition at 10 µM at human N-type Ca channel [2] (setting [6]) was 36%; at human N-type Ca channel [2] (read-out: Qpatch Pulse = 15 (percent inhibition)), 44%.

With `COc1ncccc1-c1nc(C2CC(C)(C)OC(C)(C)C2)cn1-c1cc(F)c(C#N)c(F)c1` [Cpd 82, 2,6-difluoro-4-(2-(2-methoxypyridin-3-yl)-4-(2,2,6,6-tetramethyltetrahydro-2H-pyran-4-yl)-1H-imidazol-1-yl)benzonitrile], at human N-type Ca channel [2] (setting [7]), the “N Type IC50 Data Qpatch Pulse = 1” value is listed as “poor fit” and the “N Type IC50 Data Qpatch Pulse = 15” value is on record as “poor fit”.

Turning to `COc1ncccc1-c1nc(C2CC(C)(C)OC(C)(C)C2)cn1-c1ccc(C(F)(F)F)nc1` [Cpd 54, 2-Methoxy-3-{4-(2,2,6,6-tetramethyltetrahydro-2H-pyran-4-yl)-1-[6-(trifluoromethyl)pyridin-3-yl]-1H-imidazol-2-yl}pyridine], at human N-type Ca channel [2] (concentration range 0.01-1 μM), the “N Type IC50 Data Qpatch Pulse = 1” value is reported as “Poor fit” and the “N Type IC50 Data Qpatch Pulse = 15” value is “Poor fit”.

At human N-type Ca channel [2] (setting [5]), `COc1ccccc1-c1nc(C2CC(C)(C)OC(C)(C)C2)cn1-c1ccc(F)cc1` [Cpd 4, 1-(4-Fluorophenyl)-2-(2-methoxyphenyl)-4-(2,2,6,6-tetramethyltetrahydro-2H-pyran-4-yl)-1H-imidazole] returned a 50% inhibitory concentration (IC50) of at least 10000 nM.

Take `CC1(C)CC(c2cn(-c3ccc(C#N)cc3)c(C3CC3)n2)CC(C)(C)O1` [Cpd 57, 4-[2-Cyclopropyl-4-(2,2,6,6-tetramethyltetrahydro-2H-pyran-4-yl)-1H-imidazol-1-yl]benzonitrile]: the IC50 at human N-type Ca channel [1] was at least 10000 nM.
